Test results from patent US20240398813A1, “PHARMACEUTICAL COMPOSITION FOR PREVENTING OR TREATING OVERACTIVE BLADDER” (GWANGJU INSTITUTE OF SCIENCE AND TECHNOLOGY, priority 2021, published 2024).

Experiments:
[1] = molecular target: T1, BKCa channels (rat KCNMA, rSlo α) (Rattus norvegicus, UniProt Q62976); experiment: Macroscopic current recording, outside-out patch clamp, BKCa channels expressed in Xenopus oocytes; assay type: cell-based
T1 construct: expressed in transfected cells; host or cells: Xenopus laevis oocytes injected with cRNA
T1 sequence (Q62976 whole entry): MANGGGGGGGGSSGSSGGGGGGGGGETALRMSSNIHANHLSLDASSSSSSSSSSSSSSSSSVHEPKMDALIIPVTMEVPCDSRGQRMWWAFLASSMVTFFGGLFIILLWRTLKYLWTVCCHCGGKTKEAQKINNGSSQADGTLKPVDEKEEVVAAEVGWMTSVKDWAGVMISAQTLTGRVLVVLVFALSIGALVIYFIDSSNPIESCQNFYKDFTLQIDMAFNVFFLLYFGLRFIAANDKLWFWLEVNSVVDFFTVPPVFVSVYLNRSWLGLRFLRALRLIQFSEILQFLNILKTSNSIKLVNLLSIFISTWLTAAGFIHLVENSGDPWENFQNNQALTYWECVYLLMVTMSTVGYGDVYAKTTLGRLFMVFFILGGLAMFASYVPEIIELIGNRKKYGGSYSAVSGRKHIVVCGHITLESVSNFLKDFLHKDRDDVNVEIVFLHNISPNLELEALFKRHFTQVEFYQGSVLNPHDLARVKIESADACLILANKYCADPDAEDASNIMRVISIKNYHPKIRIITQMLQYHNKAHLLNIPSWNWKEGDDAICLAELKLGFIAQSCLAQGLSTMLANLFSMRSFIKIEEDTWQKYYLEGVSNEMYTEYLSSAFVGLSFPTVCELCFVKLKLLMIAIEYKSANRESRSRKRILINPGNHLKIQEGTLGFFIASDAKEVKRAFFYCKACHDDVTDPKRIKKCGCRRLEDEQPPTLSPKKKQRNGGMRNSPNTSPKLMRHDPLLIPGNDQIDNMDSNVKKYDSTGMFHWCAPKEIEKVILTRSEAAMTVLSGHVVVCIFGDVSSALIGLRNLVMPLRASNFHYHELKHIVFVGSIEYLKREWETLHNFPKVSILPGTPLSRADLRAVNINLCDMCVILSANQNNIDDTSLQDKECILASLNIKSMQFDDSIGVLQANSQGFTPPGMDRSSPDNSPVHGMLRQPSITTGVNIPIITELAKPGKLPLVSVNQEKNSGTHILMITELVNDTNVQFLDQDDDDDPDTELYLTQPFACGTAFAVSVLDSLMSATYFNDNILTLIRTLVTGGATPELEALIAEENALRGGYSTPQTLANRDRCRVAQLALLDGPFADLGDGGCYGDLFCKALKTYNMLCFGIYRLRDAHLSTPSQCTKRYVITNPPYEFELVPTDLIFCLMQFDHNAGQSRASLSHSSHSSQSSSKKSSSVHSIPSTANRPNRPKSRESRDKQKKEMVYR
Description: (§1) The complete coding sequence (CDS) of each of rat KCNMA (rSlo α) (GenBank AF135265.1), KCNMB1 (rSlo 01) (GenBank FJ154955.1) and KCNMB4 (rSlo β4) (GenBank AY028605) was subcloned into pNBC2.0 or pNBC2.0. These vectors were designed to be expressed in Xenopus oocytes (Ha, T. S., Lim, H. H., Lee, G. E., Kim, Y. C., & Park, C. S. (2006). Electrophysiological characterization of benzofuroindole-induced potentiation of large-conductance Ca2+-activated K+ channels. Mol Pharmacol, 69(3), 1007-1014). The plasmid was linearized by NotI and complementary RNA (cRNA) was synthesized using the Ambion T7 mMESSAGE mMACHINE kit (Invitrogen, Carlsbad, CA, USA) according to the manufacturer's instructions. Xenopus laevis (KXRCR000001) was obtained from the Korea Xenopus Resource Center for Research (Chuncheon-si, Gangwon-do, Korea). Stage V-VI oocytes were surgically extracted from the ovarian lobes of X. laevis. A follicular cell layer was removed by culturing in Ca^2+-free oocyte Ringer's medium (86 mM NaCl, 1.5 mM KCl, 2 mM MgCl2 and 10 mM HEPES, pH 7.6) containing collagenase for 1.5 hours at room temperature. Oocytes without follicular layer were washed with ND-96 medium (96 mM NaCl, 2 mM KCl, 1.8 mM CaCl2), 1 mM MgCl2, 5 mM HEPES, […] gentamicin, pH 7.6). The prepared oocytes were stabilized overnight at 18° C. cRNA was injected into each oocyte (50 ng per oocyte) using a microdispenser (Drummond Scientific, Broomall, PA, USA). For co-expression of the β subunits, cRNA was mixed at a molar ratio of 1:12 (α:β) to induce sufficient co-assembly of the R subunits. After injection of cRNA, the oocytes were cultured in ND-96 medium for 1-3 days at 18° C. Before recording macroscopic currents, vitelline membranes of the oocytes were completely removed using fine forceps.
All macroscopic current recordings in the BKCa channels were performed using the gigaohm-seal patch-clamp method in an outside-out configuration (Ha et al., 2006). A patch pipette was made of borosilicate glass (WPI, Sarasota, FL, USA) and fire-polished by a resistance of 3-5 MQ. Ion currents were amplified using an Axopatch 200B amplifier (Molecular Devices). The currents were low-pass filtered at 1 kHz using a four-pole Bessel filter and digitized at a rate of 10 or 20 points/ms using a Digidata 1200A interface (Molecular Devices). The BKCa channels were activated by repeated voltage clamps at +100 mV or by voltage clamp pulses ranging from −80 to +200 mV with an increment of 10 mV. The resting potential was maintained at −100 mV. The recording solution contained 116 mM KOH, 4 mM KCl, 10 mM HEPES, and 5 mM EGTA (pH 7.2). The intracellular solution contained 3 μM Ca^2+ in the recording solution (pH 7.0). MaxChelator program was used to calculate the total amount of Ca^2+ to be added to the intracellular solution for obtaining free Ca^2+ at a concentration of 3 μM.
The commercial software Clampex 8.0 (Molecular Device) and Origin 9.1 (OriginLab Corp., Northampton, MA, USA) were used for data analysis and fitting of the macroscopic currents. A conductance-voltage (G-V) curve obtained from the external current was fitted by the Boltzmann equation [y=(Gmax−Gmin)/{1+exp[(V1/2−x)/k]}+Gmin]. Wherein k is RT/zF, and wherein R is a gas constant, T is a temperature, F is the Faraday's constant, and z is a gating charge. Gmax is the maximum conductivity and V1/2 is a voltage for half maximum conductivity. The concentration-dependent V1/2 shift was fitted by the Hill equation [y=AVi/2,max x^n/(EC50^n+x^n)]. Wherein ΔV1/2,max is a constant. EC50 is half the apparent maximum effective concentration and n is the Hill coefficient. By definition, the apparent dissociation constant KD was obtained by EC50^n. The association time constant (r association) was obtained by fitting the exponential equation [y=A exp(−x/τ)+C]. Wherein A and C are constants and τ is the time to reach (1−1/e) ( ? 63%) of the maximum current level. […]

[2] = molecular target: T2, BKCa channels co-expressed with the β1 subunit (rSlo α + KCNMB1) (Rattus norvegicus, UniProt Q62976); experiment: Macroscopic current recording, BKCa channels co-expressed with β1 subunits in Xenopus oocytes; assay type: cell-based; conditions: 10 μM
T2 construct: expressed in transfected cells; host or cells: Xenopus laevis oocytes, cRNA alpha:beta 1:12
T2 sequence (Q62976 whole entry): as above
T2 sequence (P97678 whole entry partner): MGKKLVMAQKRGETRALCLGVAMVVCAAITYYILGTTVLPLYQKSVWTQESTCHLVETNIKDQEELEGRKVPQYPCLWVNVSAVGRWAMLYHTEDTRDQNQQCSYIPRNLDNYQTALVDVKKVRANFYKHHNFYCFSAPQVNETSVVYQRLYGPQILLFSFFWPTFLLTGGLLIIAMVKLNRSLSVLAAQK
Description: as §1
All macroscopic current recordings in the BKCa channels were performed using the gigaohm-seal patch-clamp method in an outside-out configuration (Ha et al., 2006). A patch pipette was made of borosilicate glass (WPI, Sarasota, FL, USA) and fire-polished by a resistance of 3-5 MQ. […]

[3] = system: Spontaneously hypertensive rats (SHR); experiment: In vivo model of OAB: urination in spontaneously hypertensive rats after oral administration; design: species or system rat; conditions: 3 hours
Method: Male rats with body weights of 300 to 350 g were deprived of food and water overnight before the experiment, and then were randomly divided into a drug administration group and a control group. All animals were provided free access to water for 2 hours, and then 10 mL/kg of vehicle solution [DMSO:PEG400:distilled water=5:40:55 (v/v)] as a test substance were orally administered. After oral administration of the test substance, the rats were placed in a metabolic cage and the number of urinations and urine volume were measured for 3 hours.
The in vivo treatment effects of the compounds for […] were investigated in spontaneously hypertensive rats (SHR) with OAB symptoms after oral administration. Wistar-Kyoto rats (WKY) were used as the healthy animal control, and urination frequency was increased more than 2.8 times in SHR compared to WKY. Compound 208 reduced the urination frequency in SHR (50 mg/kg) by 33%, which is quite close to the urination frequency of the normal group (see FIG. 18).

[4] = molecular target: T3, hyperactive mutant BKCa channels (hSlo G803D/N806K) stably expressed in AD 293 cells (Homo sapiens, UniProt Q12791, G856D/N859K); experiment: Cell-based fluorescence assay (FluxOR Potassium Ion Channel Assay) of BKCa channel activation; conditions: compounds at 5 μM; n=3; vehicle 0.26
T3 construct: expressed in transfected cells
T3 sequence (Q12791 whole entry G856D/N859K): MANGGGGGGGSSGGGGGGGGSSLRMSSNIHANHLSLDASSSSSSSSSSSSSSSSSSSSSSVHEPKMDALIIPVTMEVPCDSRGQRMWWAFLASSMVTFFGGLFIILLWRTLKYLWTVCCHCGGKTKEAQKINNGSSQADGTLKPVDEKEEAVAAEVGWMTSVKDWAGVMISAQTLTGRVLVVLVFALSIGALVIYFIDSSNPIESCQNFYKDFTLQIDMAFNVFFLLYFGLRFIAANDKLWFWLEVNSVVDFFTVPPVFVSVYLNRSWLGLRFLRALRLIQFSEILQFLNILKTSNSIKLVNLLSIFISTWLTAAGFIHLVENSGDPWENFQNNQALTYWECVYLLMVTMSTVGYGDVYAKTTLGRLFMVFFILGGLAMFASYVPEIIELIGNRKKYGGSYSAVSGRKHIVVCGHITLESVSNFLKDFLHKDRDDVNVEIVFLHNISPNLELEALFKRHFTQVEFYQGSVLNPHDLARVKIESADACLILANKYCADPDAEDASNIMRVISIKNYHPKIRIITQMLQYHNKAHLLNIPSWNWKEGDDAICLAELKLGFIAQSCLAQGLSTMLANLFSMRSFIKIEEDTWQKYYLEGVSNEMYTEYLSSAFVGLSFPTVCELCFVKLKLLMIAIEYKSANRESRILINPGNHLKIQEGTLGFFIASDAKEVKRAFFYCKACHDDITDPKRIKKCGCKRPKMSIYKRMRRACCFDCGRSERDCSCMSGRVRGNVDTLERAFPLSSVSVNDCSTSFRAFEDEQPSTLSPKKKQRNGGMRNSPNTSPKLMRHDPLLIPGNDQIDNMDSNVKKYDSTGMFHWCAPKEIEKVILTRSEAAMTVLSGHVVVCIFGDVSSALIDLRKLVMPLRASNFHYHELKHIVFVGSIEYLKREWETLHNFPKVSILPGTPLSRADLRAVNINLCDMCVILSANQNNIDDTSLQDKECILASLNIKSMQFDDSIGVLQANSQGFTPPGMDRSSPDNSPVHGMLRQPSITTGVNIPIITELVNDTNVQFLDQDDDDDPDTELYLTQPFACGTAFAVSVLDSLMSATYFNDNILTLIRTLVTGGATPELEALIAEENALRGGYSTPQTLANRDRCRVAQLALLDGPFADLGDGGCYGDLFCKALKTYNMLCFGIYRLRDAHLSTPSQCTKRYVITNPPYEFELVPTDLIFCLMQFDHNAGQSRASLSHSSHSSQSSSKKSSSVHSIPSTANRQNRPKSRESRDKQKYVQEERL

[5] = washout after 10 μM, double exponential fit

Cc1cccc(NC(=O)c2sc(=S)n3c2[nH]c(=O)c2cc(Br)ccc23)c1 [TTQC-1, 7-bromo-5-oxo-1-thioxo-N-(m-tolyl)-4,5-dihydro-1H-thiazolo[3,4-a]quinazoline-3-carboxamide]
effect on channel activation time constant (τ activation) ([1]; 10 μM): did not show significant changes
association time constant (τ association) ([1]; 10 μM, +100 mV pulses, 3 μM intracellular Ca2+): 11.7 ± 1.77 s
increase of channel deactivation time constant (τ deactivation) ([1]; 10 μM, at +200 mV): 5.3 times
half-activation voltage (V1/2) ([1]; 30 μM): 37.9±7.50 mV
increase of maximum conductance (Gmax) compared to vehicle (G0max) ([1]; 30 μM): 1.4±0.11 times
EC50 ([1]; 0.1-30 μM, 3 μM intracellular Ca2+, read-out: apparent EC50 of V1/2 shift (Hill equation)): 2.8 µM
Hill coefficient n ([1]; fit of V1/2 shift): 2.0
Afast (amplitude of fast dissociation component) ([1]; washout after 10 μM): 0.49±0.064
Aslow (amplitude of slow dissociation component) ([1]; washout after 10 μM): 0.53±0.054
dissociation time constant, fast component [1, 5]: 7.8 ± 1.10 s
dissociation time constant, slow component [1, 5]: 136.2 ± 11.24 s
effect on τ activation [2]: changed the τ activation only at 190 mV
increase of τ deactivation ([2]; at 180 mV): 4.6 times
shift of G-V curve to the left ([2]; β1 co-expressed): 23.0±2.67 mV
number of urinary events ([3]; 10 mg/kg oral, SHR vehicle 8.2): 3.0
total urine volume ([3]; oral): significantly reduced
Activity (ΔRFU normalized by activities of LDD175) [4]: 1.06
